The subject of the test is Escherichia coli strain ATCC25922. The experiment in a line: standard microdilution assay to determine minimum inhibitory concentrations (MICs). Type of test: cell-based. Conditions: for E. coli ATCC25922 MIC: Escherichia coli strain ATCC25922, microdilution; for MIC: Escherichia coli, ATCC25922, Escherichia coli strain ATCC25922, microdilution, read-out: E. coli ATCC25922 MIC. The gist of the method: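 E. coli strain ATCC25922 tested per CLSI microdilution methodology (about 100 microliters per well) to find minimum inhibitory concentrations. Activity scored categorically at a 16 micrograms/ml threshold.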
Background: Broth dilution looks for growth in wells or tubes with falling amounts of substance.

For the compound `NCCCOCc1ccc(-c2cn3cc(-c4ccc(C(=O)N5CCNCC5)cc4)[nH]c3nc2=O)cc1` [Compound 931], the “E. coli ATCC25922 MIC” value is “− (a “−” indicates that the compound has an MIC value greater than 16 micrograms/ml)”.
Usually MIC stands for the smallest concentration in the dilution series that meets the test's criterion for growth inhibition. Consider `NCCCN(CCCN)Cc1ccc(-n2cc3cc(-c4ccc(CO)cc4)[nH]c3nc2=O)cc1` [Compound 179], for which the MIC is above 16 µg/mL.
Consider `CN(C(=O)c1ccc(-c2cn3cc(-c4ccc(CNCCCNC(=N)N)cc4)c(=O)nc3[nH]2)cc1)C1CCNCC1` [Compound 736], for which the MIC was below 16 µg/mL.
On the same count and under the same terms, in the case of `NCC(Cn1cc2cc(-c3ccc(S(=O)(=O)NC4CCNCC4)cc3)[nH]c2nc1=O)OCc1ccc(F)cc1` (stereo not drawn) [Compound 1085] it was above 16 µg/mL; in that of `NCCCNCc1ccc(-n2cc3cc(CCN[C@@H]4CCCNC4)[nH]c3nc2=O)cc1` [Compound 814], below 16 µg/mL.
With `N=C(N)NCCCNCc1ccc(-n2cc3cc(-c4ccc(S(=O)(=O)N(CC5CCOCC5)C5CCNCC5)cc4)[nH]c3nc2=O)cc1` [Compound 758], the “E. coli ATCC25922 MIC” value is on record as “+ (a “+” indicates that the compound has an MIC value of 16 micrograms/ml or less)”.
As to `N=C(N)NCCCNCc1ccc(-c2cn3cc(-c4ccc(C(=O)N5CCNC(=O)C5)cc4)[nH]c3nc2=O)cc1` [Compound 693], the minimal inhibitory concentration (MIC) is below 16 µg/mL.
Still for that read-out and setting: to `CS(=O)(=O)NCc1cc2cn(-c3ccc(CNCCCNC(=N)N)cc3)c(=O)nc2[nH]1` [Compound 1153] belongs above 16 µg/mL.
For `N=C(N)NCCCNCc1ccc(-n2cc3cc(C4CCN(CC5CNC(=O)O5)C4)[nH]c3nc2=O)cc1` (stereo not drawn) [Compound 1457], the “E. coli ATCC25922 MIC” value was “− (a “−” indicates that the compound has an MIC value greater than 16 micrograms/ml)”.
As to `NCCCN(CCCN)Cc1ccc(-n2cc3cc(-c4ccc(C(=O)N(Cc5cc(F)cc(F)c5)C5CCNCC5)cc4)[nH]c3nc2=O)cc1` [Compound 225], the MIC was below 16 µg/mL.
On to `NCc1ccc(-n2cc3cc(-c4ccccc4OCCCN4CCNCC4)[nH]c3nc2=O)cc1` [Compound 1117], for which the MIC is above 16 µg/mL.
On to `N=C(N)NCCCNCc1ccc(-n2cc3cc(-c4cccc(OCC(F)CN)c4)[nH]c3nc2=O)cc1` (stereo not drawn) [Compound 1390], for which the “E. coli ATCC25922 MIC” value was “+ (a “+” indicates that the compound has an MIC value of 16 micrograms/ml or less)”.
In the case of `CN(C)C1CCN(c2cccc(-c3cc4cn(-c5ccc(CNCCCN)cc5)c(=O)nc4[nH]3)c2)CC1` [Compound 665], the MIC was below 16 µg/mL.
Consider `N=C(N)NCCCNCc1ccc(-n2cc3cc(-c4ccc(S(=O)(=O)CCCNC5CCCNC5)cc4)[nH]c3nc2=O)cc1` (stereo not drawn) [Compound 1293], for which the “E. coli ATCC25922 MIC” value was “+ (a “+” indicates that the compound has an MIC value of 16 micrograms/ml or less)”.
Turning to `NCCc1cn(CCCCO)c2cc(-n3cc4cc(CCS(=O)(=O)C5CCNCC5)[nH]c4nc3=O)ccc12` [Compound 1239], the MIC is above 16 µg/mL.
The same measure, in the same setting: in the case of `NCCCNCc1ccc(-n2cc3cc(-c4cc(F)c(F)cc4F)[nH]c3nc2=O)cc1` [Compound 310] it was above 16 µg/mL.
With `N=C(N)NCCCNCc1ccc(-n2cc3cc(-c4cc(CCCCN)cc(S(N)(=O)=O)c4)[nH]c3nc2=O)cc1` [Compound 2092a], the “E. coli ATCC25922 MIC” value is “+ (a “+” indicates that the compound has an MIC value of 16 micrograms/ml or less)”.
On to `NCCCNCc1ccc(-c2cn3cc(-c4ccc(C5=CCNCC5)cc4)[nH]c3nc2=O)cc1` [Compound 649], for which the MIC is below 16 µg/mL.
For the compound `N=C(N)NCCCNCc1ccc(-n2cc3cc(-c4cccc(NCC(=O)N5CCOCC5)c4)[nH]c3nc2=O)cc1` [Compound 637], the MIC was above 16 µg/mL.
As for `NC(N)=NCCCNCc1ccc(-n2cc3cc(-c4cccc(S(=O)(=O)N(CCc5cccc([N+](=O)[O-])c5)C5CCNCC5)c4)[nH]c3nc2=O)cc1` [Compound 1185], the “E. coli ATCC25922 MIC” value is listed as “+ (a “+” indicates that the compound has an MIC value of 16 micrograms/ml or less)”.
For the compound `NCc1ccc(-n2cc3cc(-c4cccc(OCCNC(N)=O)c4)[nH]c3nc2=O)cc1` [Compound 1142], the MIC is above 16 µg/mL.
As for `N=C(N)NCCCNCc1ccc(-n2cc3cc(-c4ccc(S(=O)(=O)CCCNC5CCCOC5)cc4)[nH]c3nc2=O)cc1` (stereo not drawn) [Compound 1275], the “E. coli ATCC25922 MIC” value is on record as “+ (a “+” indicates that the compound has an MIC value of 16 micrograms/ml or less)”.
As for `Cc1cc(F)cc(CN(C2CCNCC2)S(=O)(=O)c2ccc(-c3cc4cn(-c5ccc(CN(CCCN)CCCN)cc5)c(=O)nc4[nH]3)cc2)c1` [Compound 237], the MIC was below 16 µg/mL.
Turning to `CC(N)CCOc1cccc(-c2cc3cn(-c4ccc(CNCCCNC(=N)N)cc4)c(=O)nc3[nH]2)c1` (stereo not drawn) [Compound 1440], the “E. coli ATCC25922 MIC” value is on record as “+ (a “+” indicates that the compound has an MIC value of 16 micrograms/ml or less)”.
In the case of `N=C(N)NCCCNCc1ccc(-n2cc3cc(-c4ccc(S(=O)(=O)N(Cc5cc(OC(F)(F)F)ccc5F)C5CCNCC5)cc4)[nH]c3nc2=O)cc1` [Compound 767], the “E. coli ATCC25922 MIC” value is reported as “+ (a “+” indicates that the compound has an MIC value of 16 micrograms/ml or less)”.
On to `N=C(N)NCCCNCc1ccc(-n2cc3cc(C4CCNC4)[nH]c3nc2=O)cc1` (stereo not drawn) [Compound 1229], for which the MIC is below 16 µg/mL.
As for `N=C(N)NCCCNCc1ccc(-n2cc3cc(CCN[C@@H]4CCCNC4)[nH]c3nc2=O)cc1` [Compound 815], the MIC is below 16 µg/mL.
As to `N=C(N)NCCCOCc1ccc(-c2cn3cc(-c4ccc(C(=O)N5CCNCC5)cc4)[nH]c3nc2=O)cc1` [Compound 932], the MIC is above 16 µg/mL.
For the compound `N=C(N)NCCCNCc1ccc(-n2cc3cc(-c4cc(C(=O)Nc5ccc(F)cn5)cc(N5CCNCC5)c4)[nH]c3nc2=O)cc1` [Compound 994], the “E. coli ATCC25922 MIC” value was “+ (a “+” indicates that the compound has an MIC value of 16 micrograms/ml or less)”.
With `CS(=O)(=O)Cc1cc(CCCCN)cc(-c2cc3cn(-c4ccc(CNCCCNC(=N)N)cc4)c(=O)nc3[nH]2)c1` [Compound 2088a], the “E. coli ATCC25922 MIC” value is recorded as “+ (a “+” indicates that the compound has an MIC value of 16 micrograms/ml or less)”.
`NC(=O)/N=C(\N)NCCCNCc1ccc(-n2cc3cc(-c4ccc(C(=O)NC5CCNCC5)cc4)[nH]c3nc2=O)cc1` [Compound 228]: the MIC was below 16 µg/mL.
`N=C(N)NCCCNCc1ccc(-n2cc3cc(-c4cc(CNc5cc(F)cc(F)c5)cc(N5CCNCC5)c4)[nH]c3nc2=O)cc1` [Compound 1043]: the “E. coli ATCC25922 MIC” value is “+ (a “+” indicates that the compound has an MIC value of 16 micrograms/ml or less)”.
Take `NC(N)=NCCC(=O)NCc1ccc(-n2cc3cc(-c4ccc(S(=O)(=O)N(Cc5ccccc5SC(F)(F)F)C5CCNCC5)cc4)[nH]c3nc2=O)cc1` [Compound 1205]: the “E. coli ATCC25922 MIC” value is given as “− (a “−” indicates that the compound has an MIC value greater than 16 micrograms/ml)”.
Still for that read-out and setting: in the case of `COc1ccc(CN(C2CCNCC2)S(=O)(=O)c2ccc(-c3cc4cn(-c5ccc(C(N)=O)cc5)c(=O)nc4[nH]3)cc2)cc1[N+](=O)[O-]` [Compound 1091] it was “− (a “−” indicates that the compound has an MIC value greater than 16 micrograms/ml)”; in that of `N=C(N)NCCCNCc1ccc(-n2cc3cc(-c4ccc(S(=O)(=O)N(CC5(CO)CC5)C5CCNCC5)cc4)[nH]c3nc2=O)cc1` [Compound 958], “+ (a “+” indicates that the compound has an MIC value of 16 micrograms/ml or less)”.
In the case of `NCCCN(CCCN)Cc1ccc(-n2cc3cc(CCc4ccccc4)[nH]c3nc2=O)cc1` [Compound 183], the MIC was above 16 µg/mL.
Turning to `CN(Cc1cccc(F)c1)Cc1cc(-c2cc3cn(-c4ccc(CNCCCNC(=N)N)cc4)c(=O)nc3[nH]2)cc(N2CCNCC2)c1` [Compound 1049], the “E. coli ATCC25922 MIC” value is listed as “+ (a “+” indicates that the compound has an MIC value of 16 micrograms/ml or less)”.
For the compound `CCOCCOc1ccccc1-c1cc2cn(-c3ccc(CN)cc3)c(=O)nc2[nH]1` [Compound 1131], the MIC was above 16 µg/mL.
For `NCc1ccc(-n2cc3cc(-c4ccc(S(=O)(=O)NC5CCNCC5)c(Cl)c4)[nH]c3nc2=O)cc1F` [Compound 272], the minimum inhibitory concentration (MIC) is above 16 µg/mL.
On to `N=C(N)NCCCNCc1ccc(-n2cc3cc(-c4cccc(OCCCN5CCNCC5)c4)[nH]c3nc2=O)cc1` [Compound 1162], for which the MIC is below 16 µg/mL.
The same measure, in the same setting: to `N=C(N)NCCCNCc1ccc(-c2cn3cc(-c4ccc(C(=O)N5CCS(=O)(=O)CC5)cc4)[nH]c3nc2=O)cc1` [Compound 700] belongs above 16 µg/mL.
With `NCCCN(CCCN)Cc1ccc(-n2cc3cc(-c4ccc(C(=O)Nc5cccnc5)cc4)[nH]c3nc2=O)cc1` [Compound 195], the MIC was above 16 µg/mL.
On to `NCCCN(CCCN)Cc1ccc(-n2cc3cc(-c4ccc(S(=O)(=O)N(Cc5ccc(SC(F)(F)F)cc5)C5CCNCC5)cc4)[nH]c3nc2=O)cc1` [Compound 236], for which the MIC was below 16 µg/mL.
As for `N=C(N)NCCCNC(=O)c1ccc(-n2cc3cc(-c4ccc(S(=O)(=O)NC5CNC5)cc4)[nH]c3nc2=O)cc1` [Compound 1268], the “E. coli ATCC25922 MIC” value is reported as “+ (a “+” indicates that the compound has an MIC value of 16 micrograms/ml or less)”.
Regarding `O=C(NC1CCNCC1)c1ccc(-c2cc3cn(-c4ccc(CNCc5c[nH]nn5)cc4)c(=O)nc3[nH]2)cc1` [Compound 240], the MIC is above 16 µg/mL.
Same read-out and setting: in the case of `NCc1ccc(-n2cc3cc(-c4cccc(OC[C@H](F)CN)c4)[nH]c3nc2=O)cc1` [Compound 1443] it was above 16 µg/mL; in that of `CS(=O)(=O)c1ccc(-c2cn3cc(-c4ccc(CNCCCNC(=N)N)cc4)c(=O)nc3[nH]2)cc1` [Compound 632], above 16 µg/mL; in that of `NCCCNCc1ccc(-n2cc3cc(-c4ccc(C(F)(F)F)cc4)[nH]c3nc2=O)cc1` [Compound 611], above 16 µg/mL.
Turning to `NCc1ccc(-n2cc3cc(-c4cccc(S(=O)(=O)N(CCOc5ccc(F)cc5)C5CCNCC5)c4)[nH]c3nc2=O)cc1` [Compound 1123], the MIC is above 16 µg/mL.
With `N=C1NCCCN1CCCCCn1cc2cc(-c3ccc(S(=O)(=O)NC4CCNCC4)cc3)[nH]c2nc1=O` [Compound 925], the MIC is above 16 µg/mL.
Regarding `CC(=O)NCCCS(=O)(=O)c1ccc(-c2cc3cn(-c4ccc(CNCCCNC(=N)N)cc4)c(=O)nc3[nH]2)cc1` [Compound 1277], the “E. coli ATCC25922 MIC” value is on record as “− (a “−” indicates that the compound has an MIC value greater than 16 micrograms/ml)”.

Values taken from patent publication US9193731B2, “Antimicrobial compounds and methods of making and using the same” (Melinta Therapeutics, Inc., priority 2009, dated 2015).
